“Also recorded” adds a separate entry of the source. Structures can show the parent of a compound that is named as a salt. Where two headings read alike, the source gives them in different places.
Key:
HIV = settings: cited from earlier work
H1-histamine receptor = H1-histamine receptor (Homo sapiens, UniProt P35367); test: β-arrestin H1-histamine receptor assay; type: cell-based
ATPlite assay = settings: human, Huh7.5.1 cells
HCV-Luc [1] = test: HCV-Luc infection assay; settings: for EC90: read-out: HCV-Luc EC90; for anti-HCV activity (in words): NPC screen / confirmation assays; for selectivity ratio: human
[2] = system: wild-type HCVcc (genotype 2a, JFH-1 strain); type: cell-based, Hepatitis C virus; settings: 10 μM; compared with DMSO treatment
Huh7.5.1 cells [3] = system: Huh7.5.1 cells
Huh7.5.1 cells [4] = system: Huh7.5.1 cells; remark: listed apart in the source
HCV-Luc [5] = test: HCV-Luc assay in 40% human serum; type: cell-based, Hepatitis C virus; settings: read-out: protein binding adjusted EC50
HCVsc, genotype 2a = type: cell-based, Hepatitis C virus; settings: 10 μM
[6] = system: hepatitis B virus, HCV replicon, herpes simplex virus-1, human cytomegalovirus, vaccinia virus, dengue virus, influenza A (H1N1) virus, respiratory syncytial …; type: cell-based
[7] = system: dengue reporter virus particle; test: Dengue reporter virus particle; type: cell-based; settings: read-out: EC50 in dengue RVP assay
HCVpp genotype 1a and 1b = type: cell-based, Hepatitis C virus; settings: 10 μM; Huh7.5.1 cells
HCV genotype 1b = type: in vivo, Alb-uPA/SCID mice engrafted with primary human hepatocytes
[8] = day 28
[9] = system: genotype 1b and 2a HCV replicon cell lines; type: cell-based, Hepatitis C virus; settings: 10 μM
[10] = system: HCV chimeric genotype viruses (1a, 1b, 2a, 2b, 3a, 4a, 5a, 6a, and 7a); test: HCV chimeric genotype virus infection of Huh7.5.1 cells; type: cell-based, Hepatitis C virus; settings: 10 μM
[11] = Mouse pharmacokinetics and tissue distribution, single intraperitoneal dose; settings: for brain levels (in words): (S)-CCZ 50 mg/kg, (S)-nor-CCZ 10 mg/kg, single intraperitoneal dose
wild-type HCVcc = type: cell-based, Hepatitis C virus; settings: primary human hepatocytes; titration, dose-dependent manner
HCV-Luc [12] = test: Time-of-addition experiment; type: cell-based, Hepatitis C virus; settings: for inhibitory kinetics, time-of-addition profile: bafilomycin A1 10 nM, sofosbuvir 10 μM, 2-hour incubations; for effect on viral level, time of addition: treatment during the attachment step
[13] = Cytotoxicity in the dengue RVP assay; type: cell-based
[14] = system: genotype 1a replicon in Huh7.5.1 cells; type: cell-based, Hepatitis C virus; settings: 10 μM
[15] = mouse, in vivo, ip, 10 mg/kg
HCV-Luc [16] = test: In vitro combination evaluation; settings: for CalcuSyn CI value: in combination with (S)-CCZ at or near their EC50 values; for MacSynergy Log volume: in combination with (S)-CCZ, Bliss independence model
[17] = Microsomal stability assay, human microsomes; type: in vitro ADME
[18] = Microsomal stability assay, mouse microsomes; type: in vitro ADME
[19] = read-out: HCV-Luc EC50, Huh7.5.1 cells, luciferase signal 48 hours after treatment
[20] = Huh7.5.1 cells, luciferase signal 48 hours after treatment

Chain of H1-histamine receptor (P35367 whole entry): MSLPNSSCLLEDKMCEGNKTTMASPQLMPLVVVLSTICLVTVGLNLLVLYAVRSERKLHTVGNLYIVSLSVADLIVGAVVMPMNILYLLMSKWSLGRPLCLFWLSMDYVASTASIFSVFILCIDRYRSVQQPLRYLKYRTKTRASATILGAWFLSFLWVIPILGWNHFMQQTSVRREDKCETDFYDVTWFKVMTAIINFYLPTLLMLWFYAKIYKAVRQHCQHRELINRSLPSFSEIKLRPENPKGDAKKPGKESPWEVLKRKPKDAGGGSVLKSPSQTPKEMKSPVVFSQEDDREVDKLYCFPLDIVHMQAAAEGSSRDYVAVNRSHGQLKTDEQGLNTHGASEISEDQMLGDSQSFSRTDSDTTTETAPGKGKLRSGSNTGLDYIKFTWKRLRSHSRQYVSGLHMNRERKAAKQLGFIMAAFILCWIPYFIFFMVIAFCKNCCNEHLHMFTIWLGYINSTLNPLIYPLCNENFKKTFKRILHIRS

Compound: CN1CCN(C(c2ccccc2)c2ccc(Cl)cc2)CC1 (racemic) [Racemic CCZ, chlorcyclizine HCl]
- activity against HIV (HIV): reported activity against HIV
- Antihistamine activity at 10 nM (H1-histamine receptor): 72.60%
- CC50 (ATPlite assay): 49800 ± 17200 nM
- EC50 (HCV-Luc [1]; Hepatitis C virus): ~50 nM
- EC50 (HCV-Luc [1]; Hepatitis C virus, Huh-7.5.1, 48 h, read-out: HCV-Luc EC50): 44 ± 11 nM
- EC90 (HCV-Luc [1]; Hepatitis C virus, Huh-7.5.1, 48 h): 1400 ± 450 nM
- Intracellular and extracellular viral RNA levels [2]: significantly reduced

Compound: CN1CCN([C@H](c2ccccc2)c2ccc(Cl)cc2)CC1 [(R)-CCZ]
- Antihistamine activity at 10 nM (H1-histamine receptor): 88.00%
- EC50 (HCV-Luc [1]; [19]): 20 ± 5 nM
- EC90 (HCV-Luc [1]; [20]): 1090 ± 370 nM
- Intracellular and extracellular viral RNA levels [2]: significantly reduced
- CC50 (Huh7.5.1 cells [3]): 37500 ± 4150 nM

Compound: CN1CCN([C@@H](c2ccccc2)c2ccc(Cl)cc2)CC1 [(S)-CCZ]
- cytotoxicity after continuous treatment for 21 days (Huh7.5.1 cells [4]; 10 μM): low cytotoxicity
- cytotoxicity after continuous treatment for 21 days (Huh7.5.1 cells [4]; 1.0 and 5.0 μM): no cytotoxicity
- EC50 (HCV-Luc [5]): 240 nM
- inhibitory activity in the HCVsc assay (HCVsc, genotype 2a): strong inhibitory activity
- antiviral activity in NIAID antiviral screen [6]: little or no antiviral activity
- EC50 [7]: 1880 nM
- inhibitory effect on HCVpp entry (HCVpp genotype 1a and 1b): no significant inhibitory effect
- decrease of genotype 1b virus titer (HCV genotype 1b; 2 mg/kg daily for 4 weeks): about 1 log
- reduction of HCV titers from pretreatment baseline (HCV genotype 1b; 50 and 10 mg/kg daily for 4 weeks, genotype 1b): 2 log
- HCV titers during the treatment period (drug resistance) (HCV genotype 1b; genotype 1b and 2a infections): without rebound
- liver to plasma ratio ([8]; 2 mg/kg group): 38
- liver to plasma ratio ([8]; 10 mg/kg group): 41
- liver concentration ([8]; (S)-CCZ dose of 2 mg/kg): 0.342 µM
- liver concentration ([8]; (S)-CCZ dose of 10 mg/kg): 2.66 µM
- inhibitory effect on HCV replicon [9]: did not exert a significant inhibitory effect
- Antihistamine activity at 10 nM (H1-histamine receptor): 41.70%
- extracellular HCV RNA levels and infectivity (TCID50/ml) [10]: inhibited
- ratio of liver to plasma ([11]; 50 mg/kg intraperitoneal, assuming liver density 1.0 g/ml): 29.6
- brain levels (in words) [11]: comparable to liver levels
- intracellular HCV RNA level (wild-type HCVcc): inhibited
- EC50 (HCV-Luc [1]; [19]): 24 ± 9 nM
- EC90 (HCV-Luc [1]; [20]): 1440 ± 430 nM
- inhibition of infection, time of addition (HCV-Luc [12]; added 2 or 3 hours after entry): no significant inhibition
- inhibition of infection, time of addition (HCV-Luc [12]; added 1 hour after synchronous entry): Less inhibitory effect
- inhibition of infection, time of addition (HCV-Luc [12]; added during viral attachment at 4°C for 2 hours or during the first 2 hours of synchronous entry at 37°C): potent inhibition
- CC50 [13]: > 31600 nM
- Intracellular and extracellular viral RNA levels [2]: significantly reduced
- CC50 (Huh7.5.1 cells [3]): 33400 ± 2440 nM
- HCV replication, transient replicon [14]: not inhibited

Compound: Clc1ccc([C@H](c2ccccc2)N2CCNCC2)cc1 [(S)-Nor-CCZ]
- T1/2 compared to (S)-CCZ (in words) [15]: longer T1/2
- liver concentration ([8]; (S)-CCZ dose of 2 mg/kg): 3.16 µM
- liver concentration ([8]; (S)-CCZ dose of 10 mg/kg): 12.1 µM
- Antihistamine activity at 10 nM (H1-histamine receptor): 2.24%
- ratio of average concentration in liver to plasma ([11]; 10 mg/kg intraperitoneal): 60.7
- brain levels (in words) [11]: comparable to liver levels
- EC50 (HCV-Luc [1]; [19]): 34 ± 12 nM
- EC90 (HCV-Luc [1]; [20]): 578 ± 99 nM
- CC50 (Huh7.5.1 cells [3]): 9310 ± 40 nM

Compound: CO/C1=C\C(C)=C\[C@@H](C)[C@@H](O)[C@@H](C)C/C(C)=C/C=C/[C@H](OC)[C@@H]([C@@H](C)[C@@H](O)[C@H](C)[C@@]2(O)C[C@@H](O)[C@H](C)[C@@H](C(C)C)O2)OC1=O [Bafilomycin A1]
- inhibitory kinetics, time-of-addition profile (HCV-Luc [12]): only showed significant inhibitory effect when added during the first 2 hours of synchronous entry
- effect on viral level, time of addition (HCV-Luc [12]): no effect on viral level

Compound: CC(C)(C)NC(=O)N[C@H](C(=O)N1C[C@H]2[C@@H]([C@H]1C(=O)NC(CC1CCC1)C(=O)C(N)=O)C2(C)C)C(C)(C)C (stereo partly shown) [Boceprevir]
- CalcuSyn CI value (HCV-Luc [16]): 0.691 ± 0.114
- MacSynergy Log volume (HCV-Luc [16]): +++ (strong synergy (log volume ≥ 9))

Compound: O=C(O)COCCN1CCN(C(c2ccccc2)c2ccc(Cl)cc2)CC1 (stereo not shown) [Cetirizine]
- anti-HCV activity (in words) (HCV-Luc [1]): not active

Compound: CN1CCN(C(c2ccccc2)c2ccccc2)CC1 [Cyclizine]
- lower activity than CCZ (HCV-Luc [1]; relative to CCZ): 10 fold

Compound: COC(=O)N[C@H](C(=O)N1CCC[C@H]1c1nc(-c2ccc(-c3ccc(-c4c[nH]c([C@@H]5CCCN5C(=O)[C@@H](NC(=O)OC)C(C)C)n4)cc3)cc2)c[nH]1)C(C)C [Daclatasvir]
- CalcuSyn CI value (HCV-Luc [16]): 0.427 ± 0.142
- MacSynergy Log volume (HCV-Luc [16]): +++ (strong synergy (log volume ≥ 9))

Compound: NCCc1c[nH]cn1 [Histamine]
- anti-HCV activity (in words) (HCV-Luc [1]): no anti-HCV activity; also recorded: no effect on HCV infection

Compound: O[C@H]1[C@H]2c3cc4c(cc3CN3CCC(=C[C@@H]1O)[C@H]23)OCO4 [Lycorine-HCl, reference compound]
- EC50 [7]: 40.6 nM
- CC50 [13]: > 31600 nM

Compound: NC(=O)c1ncn([C@@H]2O[C@H](CO)[C@@H](O)[C@H]2O)n1 [Ribavirin]
- CalcuSyn CI value (HCV-Luc [16]): 0.630 ± 0.106
- MacSynergy Log volume (HCV-Luc [16]): +++ (strong synergy (log volume ≥ 9))

Compound: CC(C)OC(=O)[C@H](C)N[P@](=O)(OC[C@H]1O[C@@H](n2ccc(=O)[nH]c2=O)[C@](C)(F)[C@@H]1O)Oc1ccccc1 [Sofosbuvir]
- CalcuSyn CI value (HCV-Luc [16]): 0.362 ± 0.075
- MacSynergy Log volume (HCV-Luc [16]): +++ (strong synergy (log volume ≥ 9))
- inhibitory kinetics, time-of-addition profile (HCV-Luc [12]): inhibited HCVcc infection when added at all the time points except during the attachment stage
- effect on viral level, time of addition (HCV-Luc [12]): no effect on viral level

Compound: CCC[C@H](NC(=O)[C@@H]1[C@H]2CCC[C@H]2CN1C(=O)[C@@H](NC(=O)[C@@H](NC(=O)c1cnccn1)C1CCCCC1)C(C)(C)C)C(=O)C(=O)NC1CC1 [Telaprevir]
- CalcuSyn CI value (HCV-Luc [16]): 0.426 ± 0.138
- MacSynergy Log volume (HCV-Luc [16]): +++ (strong synergy (log volume ≥ 9))

Compound: NC(=O)COCCN1CCN(C(c2ccccc2)c2ccc(Cl)cc2)CC1 (stereo not shown) [cetirizine amide]
- EC50 (HCV-Luc [1]; [19]): 103 nM

Compound: Clc1ccc(Cn2c(CN3CCCC3)nc3ccccc32)cc1 [clemizole]
- anti-HCV activity (in words) (HCV-Luc [1]): much less potent activity

Compound: CN1CCCN(C(c2ccccc2)c2ccc(Cl)cc2)CC1 (stereo not shown) [homochlorcyclizine]
- EC50 (HCV-Luc [1]; Hepatitis C virus): ~50 nM
- selectivity ratio (HCV-Luc [1]): 318 to 924

Compound: OCCOCCN1CCN(C(c2ccccc2)c2ccc(Cl)cc2)CC1 (stereo not shown) [hydroxyzine]
- EC50 (HCV-Luc [1]; Hepatitis C virus): ~50 nM
- selectivity ratio (HCV-Luc [1]): 318 to 924

Compound: Clc1ccc(C(c2ccccc2)N2CCNCC2)cc1 (stereo not shown) [nor-CCZ, nor-chlorcyclizine]
- half-life [17]: > 1.67 h
- anti-HCV activity (in words) (HCV-Luc [1]): comparable to that of CCZ
- selectivity ratio (HCV-Luc [1]): 188
- T1/2 in mice (microsomes) relative to CCZ [18]: more than fourfold longer
- cytotoxicity compared with CCZ (in words) (Huh7.5.1 cells [3]): higher cytotoxicity

Compound: IFN-α
- CalcuSyn CI value (HCV-Luc [16]): 0.609 ± 0.128
- MacSynergy Log volume (HCV-Luc [16]): +++ (strong synergy (log volume ≥ 9))
